Measurements published in ChEMBL document CHEMBL1155592, “New antibacterial metabolites from the cyanobacterium Nostoc commune(EAWAG 122b)” (2000).
Values after ≈ are worked out from the molar mass of the structure shown.

Legend:
[1] = test system: Staphylococcus epidermidis; test: Antibacterial activity against Staphylococcus epidermidis ATCC 12228; type: functional
Bacillus cereus = test: Antibacterial activity against Bacillus cereus ATCC 10702; type: functional

SMILES	MIC [1]	MIC (Bacillus cereus)
Cc1ccc(O)c2c1C(=O)c1cccc(O)c1C2=O	32 µg/mL (≈ 126 µM)	32 µg/mL (≈ 126 µM)
C[C@@H]1C[C@H](O)C2=C3[C@@H](C[C@@H]4C(C)(C)[C@H](O)CC[C@@]24C)Oc2ccc(C(=O)O)cc2C[C@@]31C	4 µg/mL (≈ 9.08 µM)	128 µg/mL (≈ 291 µM)
Cc1ccc(O)c2c1C(=O)CC2	128 µg/mL (≈ 789 µM)	64 µg/mL (≈ 395 µM)
O=C(N[C@H](CO)[C@H](O)c1ccc([N+](=O)[O-])cc1)C(Cl)Cl [CHLORAMPHENICOL]	4 µg/mL (≈ 12.4 µM)	8 µg/mL (≈ 24.8 µM)
